In this test the target is T1, CD73 (Homo sapiens, UniProt P21589).
T1 sequence (P21589 27-549): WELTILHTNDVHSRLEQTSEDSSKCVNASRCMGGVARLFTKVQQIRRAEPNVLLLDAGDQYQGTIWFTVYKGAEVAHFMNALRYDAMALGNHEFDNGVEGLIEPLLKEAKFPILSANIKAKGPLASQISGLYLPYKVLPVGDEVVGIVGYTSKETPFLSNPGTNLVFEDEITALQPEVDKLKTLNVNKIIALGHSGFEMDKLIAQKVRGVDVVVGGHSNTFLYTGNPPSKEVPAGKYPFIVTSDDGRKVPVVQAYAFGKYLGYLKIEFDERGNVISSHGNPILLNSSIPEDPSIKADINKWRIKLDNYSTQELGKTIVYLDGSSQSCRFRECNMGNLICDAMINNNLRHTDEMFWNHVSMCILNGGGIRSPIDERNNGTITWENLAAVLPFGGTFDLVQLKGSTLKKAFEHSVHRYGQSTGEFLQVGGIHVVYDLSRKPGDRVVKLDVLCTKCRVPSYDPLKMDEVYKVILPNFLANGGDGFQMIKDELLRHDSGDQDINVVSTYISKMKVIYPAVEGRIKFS
Briefly: Example A1: Biochemical Assay (CD73 inhibition, Malachite Green detection of AMP hydrolysis). Particulars: AMP 15 μM, Tris-HCl pH 7.4, Malachite Green, absorbance 620 nm. Here is the method: Example A1: Biochemical Assay
Assay Reaction Conditions
• Assay Volume: 70 μl • Reaction Volume: 50 μl • CD73: 0.3208 nM • AMP: 15 μM • Assay Buffer: 2 5 mM Tris-HCL, pH 7.4, 0.01% Brij-35, 0.01% BSA, 5 mM MgCl2 Assay Procedure:
Made dose titration of testing compounds in assay buffer, 10 points ½ log titrations in duplicates starting at 100 μM.
Added 25 μl of CD73 to each well for a final concentration of […].
Incubated at RT for 15 min.
Added 25 μl of AMP to each well for a final concentration of 15 μM.
Incubated at RT for 10 min.
Added 10 μl of Malachite Green Reagent A, incubate at RT for 10 min.
Added 10 μl of Malachite Green Reagent B, incubate at RT for 45 min.
Read the Absorbance on Envision plate reader using excitation filter: Cy5 […].
The ability of the compounds disclosed herein to inhibit CD73 activity was quantified and the respective IC50 values were determined. Table 1 provides the biochemical IC50 values of compounds disclosed herein.

[1] abbreviates: CD73 0.3208 nM, read-out: Biochemical IC50.

In US11576922B2, “CD73 inhibitors” (ORIC Pharmaceuticals, Inc., priority 2017, dated 2023) one finds IC50 data, which are given here for twelve compounds.

Each structure is given as a SMILES string. pIC50: −log10 of the molar value. Like-named read-outs stand apart in the source and are kept apart here.

In general, pIC50 refers to the negative decadic logarithm of the IC50, by convention in mol/L. For `O=P(O)(O)CP(=O)(O)OC[C@H]1OC(n2nnc3c(NC4CCc5ccccc54)nc(Cl)nc32)[C@H](O)[C@@H]1O` (stereo in doubt) [Example 31, (((((2R,3S,4R,5S)-5-(5-chloro-7-(((R)-2,3-dihydro-1H-inden-1-yl)amino)-3H-[1,2,3]triazolo[4,5-d]pyrimidin-3-yl)-3,4-dihydroxytetrahydrofuran-2-yl)methoxy)(hydroxy)phosphoryl)methyl) phosphonic acid], the pIC50 under setting [1] is more than 7.00.

With `O=P(O)(O)CP(=O)(OCc1ccccc1)OC[C@H]1O[C@@H](n2nnc3c(NCc4ccccc4Cl)nc(Cl)nc32)[C@H](O)[C@@H]1O` (stereo partly drawn) [Example 29, (((benzyloxy)(((2R,3S,4R,5R)-5-(5-chloro-7-((2-chlorobenzyl)amino)-3H-[1,2,3]triazolo[4,5-d]pyrimidin-3-yl)-3,4-dihydroxytetrahydrofuran-2-yl)methoxy)phosphoryl)methyl)phosphonic acid], under setting [1], the pIC50 is more than 7.00.

Take `O=P(O)(O)CP(=O)(O)OC[C@H]1O[C@@H](n2nnc3c(N[C@H]4CCc5ccccc54)nc(Cl)nc32)[C@H](O)[C@@H]1O` [Example 20, (((((2R,3S,4R,5R)-5-(5-chloro-7-(((S)-2,3-dihydro-1H-inden-1-yl)amino)-3H-[1,2,3]triazolo[4,5-d]pyrimidin-3-yl)-3,4-dihydroxytetrahydrofuran-2-yl)methoxy)(hydroxy)phosphoryl)methyl) phosphonic acid]: the pIC50 under setting [1] was more than 7.00.

As to `COP(=O)(CP(=O)(O)O)OC[C@H]1O[C@@H](n2ncc3c(N(C)C4CCc5ccccc54)nc(Cl)nc32)[C@H](O)[C@@H]1O` (stereo partly drawn) [Example 39, (((((2R,3S,4R,5R)-5-(6-Chloro-4-(((R)-2,3-dihydro-1H-inden-1-yl)(methyl)amino)-1H-pyrazolo[3,4-d]pyrimidin-1-yl)-3,4-dihydroxytetrahydrofuran-2-yl)methoxy)(methoxy)phosphoryl)methyl)phosphonic acid], the negative logarithm of the IC50 (pIC50) under setting [1] is more than 7.00.

`CN(c1nc(Cl)nc2c1cnn2[C@@H]1O[C@H](COP(=O)(O)CP(=O)(O)O)[C@@H](O)[C@H]1O)[C@@H]1CCc2ccccc21` [Example 38, (((((2R,3S,4R,5R)-5-(6-chloro-4-(((R)-2,3-dihydro-1H-inden-1-yl)(methyl)amino)-1H-pyrazolo[3,4-d]pyrimidin-1-yl)-3,4-dihydroxytetrahydrofuran-2-yl)methoxy)(hydroxy)phosphoryl)methyl)phosphonic acid]: the pIC50 under setting [1] is more than 7.00.

As to `CN(c1nc(Cl)nc2c1cnn2[C@@H]1O[C@H](COP(=O)(O)CP(=O)(O)O)[C@@H](O)[C@H]1O)[C@@H]1CCc2ccccc21` [Example 50, (((((2R,3S,4R,5R)-5-(6-chloro-4-(((R)-2,3-dihydro-1H-inden-1-yl)(methyl)amino)-1H-pyrazolo[3,4-d]pyrimidin-1-yl)-3,4-dihydroxytetrahydrofuran-2-yl)methoxy)(hydroxy)phosphoryl)methyl) phosphonic acid], the pIC50 under setting [1] is more than 7.00.

In the case of `CN(Cc1ccccc1)c1nc(Cl)nc2c1nnn2[C@@H]1O[C@H](COP(=O)(O)CP(=O)(O)O)[C@@H](O)[C@H]1O` [Example 15, (((((2R,3S,4R,5R)-5-(7-(benzyl(methyl)amino)-5-chloro-3H-[1,2,3]triazolo[4,5-d]pyrimidin-3-yl)-3,4-dihydroxytetrahydrofuran-2-yl)methoxy)(hydroxy)phosphoryl)methyl) phosphonic acid], the pIC50 under setting [1] is more than 7.00.

As for `C[C@@]1(O)[C@@H](COP(=O)(O)CP(=O)(O)O)O[C@@H](n2ncc3c(NCc4ccccc4Cl)nc(Cl)nc32)[C@@H]1O` [Example 40, (((((2R,3S,4R,5R)-5-(6-Chloro-4-((2-chlorobenzyl)amino)-1H-pyrazolo[3,4-d]pyrimidin-1-yl)-3,4-dihydroxy-3-methyltetrahydrofuran-2-yl)methoxy)(hydroxy)phosphoryl)methyl)phosphonic acid], under setting [1], the pIC50 was more than 7.00.

For the compound `O=P(O)(O)C[P@](=O)(OC[C@H]1O[C@@H](n2nnc3c(NCc4ccccc4Cl)nc(Cl)nc32)[C@H](O)[C@@H]1O)Oc1ccccc1` [Example 32, (((S)-(((2R,3S,4R,5R)-5-(5-chloro-7-((2-chlorobenzyl)amino)-3H-[1,2,3]triazolo[4,5-d]pyrimidin-3-yl)-3,4-dihydroxytetrahydrofuran-2-yl)methoxy)(phenoxy)phosphoryl)methyl) phosphonic acid], where the note is “Biochemical IC50, CD73 0.3208 nM”, the pIC50 was less than 6.00.

As to `O=P(O)(O)CP(=O)(O)OC[C@H]1O[C@@H](n2nnc3c(NCc4cccc(Cl)c4)nc(Cl)nc32)[C@H](O)[C@@H]1O` [Example 14, (((((2R,3S,4R,5R)-5-(5-chloro-7-((3-chlorobenzyl)amino)-3H-[1,2,3]triazolo[4,5-d]pyrimidin-3-yl)-3,4-dihydroxytetrahydrofuran-2-yl)methoxy)(hydroxy)phosphoryl)methyl) phosphonic acid], under setting [1], the negative-log IC50 (pIC50) was more than 7.00.

Consider `C[C@@H](c1ccccc1)N(C)c1nc(Cl)nc2c1nnn2[C@@H]1O[C@H](COP(=O)(O)CP(=O)(O)O)[C@@H](O)[C@H]1O` [Example 13, (((((2R,3S,4R,5R)-5-(5-chloro-7-(methyl((S)-1-phenylethyl)amino)-3H-[1,2,3]triazolo[4,5-d]pyrimidin-3-yl)-3,4-dihydroxytetrahydrofuran-2-yl)methoxy)(hydroxy)phosphoryl)methyl) phosphonic acid], for which the pIC50 under setting [1] is more than 7.00.

On to `CN(c1nc(Cl)nc2c1nnn2[C@@H]1O[C@H](COP(=O)(O)CP(=O)(O)O)[C@@H](O)[C@H]1O)[C@H]1CCc2ccccc21` [Example 18, (((((2R,3S,4R,5R)-5-(5-chloro-7-(((S)-2,3-dihydro-1H-inden-1-yl)(methyl)amino)-3H-[1,2,3]triazolo[4,5-d]pyrimidin-3-yl)-3,4-dihydroxytetrahydrofuran-2-yl)methoxy)(hydroxy)phosphoryl)methyl) phosphonic acid], for which, under setting [1], the pIC50 was more than 7.00.
